Measurements: US8501442B2, “Determination of 5-ASA efficacy in CRC prevention and/or treatment by gene expression analysis” (Sofar SpA, priority 2009, dated 2013)

Key:
Assay type in all cases: cell-based
CaCo2 cells = assay: Proliferation of CaCo2 cells under 5-ASA treatment (preliminary experiments)
[1] = system: μ-protocadherin protein in CaCo2 cells; assay: Time course Western blot of μ-protocadherin protein expression in CaCo2 cells; conditions: 20 mM 5-ASA for up to 96 h, 24 h intervals
Description: To confirm μ-protocadherin induction we performed a time course Western blot analysis on CaCo2 cells undergoing exposure to 20 mM 5-ASA for up to 96 h. […] FIG. 2. Results of a time course Western blot analysis evaluating the expression of μ-protocadherin protein in CaCo2 cells treated with 5-ASA. This analysis was performed on cytoplasmic extracts of studied cells, at 24 h intervals following treatment with 5-ASA. Analyzed cell samples are indicated on the top. Normalization of the protein amount loaded in each lane was achieved using a pan-actin antibody able to detect either cytoplasmic or nuclear actin.

[2] = system: μ-protocadherin/β-catenin protein complex in CaCo2 cells; assay: Coimmunoprecipitation analysis of μ-protocadherin/β-catenin protein interaction in CaCo2 cells; conditions: lysates of CaCo2 cells, 20 mM 5-ASA for 96 h
Description: The hypothesis arising from our data would directly imply that μ-protocadherin, as other proteins belonging to the cadherin superfamily, is able to bind β-catenin on the plasmatic membrane. To verify this interaction we performed co-immunoprecipitation experiments in which β-catenin was immunoprecipitated from lysates of CaCo2 cells treated with 20 mM 5-ASA for 96 h using a specific antibody and the immunoprecipitate was subsequently analyzed by Western blot carried out with a distinct antibody able to detect μ-protocadherin. […] FIG. 4. Coimmunoprecipitation analysis of μ-protocadherin/β-catenin protein interaction. […] Western blot analysis of μ-protocadherin expression was performed in cell lysates of control untreated and 5-ASA treated CaCo2 cells (Input, left panel), immunoprecipitates obtained by the same cells using normal control IgG (middle panel) and immunoprecipitates obtained by the same cells using an anti-β-catenin antibody (right panel). IP, immunoprecipitation; WB, Western blot; Ab antibody.

[3] = system: β-catenin signalling pathway genes in CaCo2 colon adenocarcinoma cells; assay: QRT-PCR analysis of genes regulating the β-catenin signalling pathway in CaCo2 cells; conditions: 20 mM 5-ASA
Description: (§1) To investigate the molecular mechanisms underlying this effect we performed a microarray analysis, using the Affimetrix methodology, in order to assess the transcriptome changes determined on CaCo2 cells by treatment with 20 mM 5-ASA for 96 h. […] This gene codes for a member of the cadherin superfamily and, based on previous reports by other authors, appeared as a putative inhibitor of the β-catenin signalling pathway, i.e. a cell proliferation pathway mediated by the activity of the β-catenin transcription factor^16,17. The relevance of this finding resides in the observation that the β-catenin signalling pathway is constitutively activated in CRC. […] Up-regulation of mRNA expression resulted to be 12-fold for μ-protocadherin, 16-fold for p21^waf-1, 4 to 6-fold for KLF4 and CEBPα and 2 to 3-fold Axin 1 and ICAT. […] The up-regulation of these genes appeared also more pronounced at the end of stimulation (96 h). mRNA expression of E-cadherin and β-catenin appeared, conversely, unaffected (FIG. 1).
FIG. 1. QRT-PCR analysis of genes belonging to the β-catenin signalling pathway in CaCo2 cells treated with 5-ASA. Cells under the experimental conditions described in Results were analyzed by QRT-PCR to estimate the mRNA expression of genes belonging to the β-catenin signalling pathway, all indicated on y-axis. The effect determined by 5-ASA treatment on the mRNA expression of KLF4 and CEBPα onco-suppressor genes is also shown.
Total RNA was extracted from cell suspensions and frozen tissues by means of the Qiagen total RNA purification kit as recommended by the manufacturer (Qiagen, Valencia, Calif.). RNA integrity and concentration were verified using the Bio-Analyzer technique (Applied Biosystem, Foster City, Calif.). 100 ng of total RNA were reverse transcribed using the High Capacity cDNA Archive Kit (Applied Biosystems) according to the manufacturer's instructions. QRT-PCR was performed with an ABI PRISM 7900 sequence detection system (Applied Biosystems) to quantify the relative levels of mRNA in the samples. Primers and probes for mRNA amplification of μ-protocadherin, E-cadherin, β-catenin, Axin-1, Inhibitor of β-Catenin and TCF-4 (ICAT), p21^waf-1, KLF4, CEBPα, and glyceraldehyde-3-phosphate dehydrogenase (GAPDH) were designed by Applied Biosystems. Each cDNA sample was run in triplicate in 50 μl reaction volume using Taqman Universal PCR Master Mix (Applied Biosystems). Thermal cycling was started with an initial denaturation at 50° C. for 2 min and 95° C. for 10 min, followed by 40 thermal cycles of 15 sec at 95° C. and 1 min at 60° C. Evaluation of QRT-PCR signals was performed using the ΔΔCt relative quantitation method. […] The values obtained were expressed in terms of relative quantity (RQ) of mRNA level variation.

[4] = system: β-catenin signalling pathway genes in HT29 colon adenocarcinoma cell line; assay: QRT-PCR analysis of β-catenin signalling pathway genes in HT29 cells; conditions: 20 mM 5-ASA, 96 h
Description: These findings were also confirmed in another colon adenocarcinoma cell line, named HT29, under the same experimental conditions.
FIG. 5. Biological effects determined by treatment with 5-ASA on the HT29 colon adenocarcinoma cell line. The mRNA expression variations of gene belonging to the β-catenin signalling pathway were analyzed in HT29 cells using the QRT-PCR reaction under the experimental conditions described in Results and in FIG. 1.
Total RNA was extracted from cell suspensions and frozen tissues by means of the Qiagen total RNA purification kit as recommended by the manufacturer (Qiagen, Valencia, Calif.). RNA integrity and concentration were verified using the Bio-Analyzer technique (Applied Biosystem, Foster City, Calif.). 100 ng of total RNA were reverse transcribed using the High Capacity cDNA Archive Kit (Applied Biosystems) according to the manufacturer's instructions. QRT-PCR was performed with an ABI PRISM 7900 sequence detection system (Applied Biosystems) to quantify the relative levels of mRNA in the samples. […] Evaluation of QRT-PCR signals was performed using the ΔΔCt relative quantitation method. […] The values obtained were expressed in terms of relative quantity (RQ) of mRNA level variation.

[5] = system: onco-suppressor genes in CaCo2 cells; assay: Affimetrix microarray analysis of transcriptome changes in CaCo2 cells; conditions: 20 mM 5-ASA for 96 h
Description: as §1

[6] = system: β-catenin protein in CaCo2 cells; assay: Immunofluorescence assay of sub-cellular distribution of β-catenin in CaCo2 cells; conditions: 20 mM 5-ASA, after 96 h of culture
Description: Due to the particular regulation mechanisms controlling the β-catenin signalling pathway, levels of β-catenin protein observed in the different subcellular compartments represent reliable indicators of the extent of its activation. Based on this premise we performed an immunofluorescence assay to assess the sub-cellular distribution of β-catenin protein in CaCo2 cells undergoing treatment with 20 mM 5-ASA. […] FIG. 3. Immunofluorescence analysis of β-catenin protein on CaCo2 cells exposed to 5-ASA treatment. Cells were stimulated with 5-ASA as explained in Results and subsequently stained with an anti-β-catenin primary antibody and a FITC conjugated secondary antibody (green fluorescence). Untreated control cells (CONT.) were also analyzed. Nuclei were counterstained with DAPI (blue fluorescence). Merge images, of the two analyzed fluorescence signals, are also shown.

[7] = 48 and 96 h (more pronounced at 96 h)

SMILES: Nc1ccc(O)c(C(=O)O)c1 [5-ASA, 5 aminosalicylic acid]
- proliferation activity of CaCo2 cells (CaCo2 cells): inhibits the proliferation activity
- μ-protocadherin protein expression in cytoplasmic extract (Western blot) [1]: gradually but remarkably induced
- μ-protocadherin bands (93 and 110 kDa) in β-catenin immunoprecipitate [2]: interacting with β-catenin
- mRNA expression of E-cadherin ([3]; 48 and 96 h): unaffected
- mRNA expression of β-catenin ([3]; 48 and 96 h): unaffected
- up-regulation of p21^waf-1 mRNA expression [3, 7]: 16 fold
- up-regulation of μ-protocadherin mRNA expression [3, 7]: 12 fold
- induction of p21^waf-1 mRNA expression [4]: 5 fold
- induction of μ-protocadherin mRNA expression [4]: 3 fold
- expression of onco-suppressor genes (μ-protocadherin, KLF4, CEBPα) by microarray [5]: up-regulated expression
- sub-cellular localization of β-catenin signal [6]: almost exclusively localized in the plasmatic membrane
